Measurements from patent publication US10982188B2, “Synthetic retina” (University of Newcastle Upon Tyne, priority 2014, dated 2021).
Values belong to the compound of their own block, whether it stands above or below them.

Legend:
IGF-IR = molecular target: T1, IGF-IR (Homo sapiens, UniProt P08069); test: IGF-1 receptor signalling interference: optic vesicle/optic cup formation and survival of EBs; format: cell-based; settings: for optic vesicle production from differentiating EBs: 7 μM
T1 construct: endogenous in cells; host or cells: hESC (line H9, WiCell)-derived embryoid bodies
Description: To confirm the contribution of the IGF-1 signalling pathway in this process, the inventors differentiated cells in the presence of a pharmacological inhibitor of the IGF-IR (pi(IR)) or a neutralising antibody directed against the IGF-II receptor, IGF-IIR ((n)IIR), in the presence (+) or absence (−) of IGF-1 supplementation (FIG. 5I, J).
hESCs were expanded and differentiated as described. For interference of IGF-1 receptor signalling an IGF-IR-specific pharmacological inhibitor ([7 μM], AG1024, Stratech) was added to differentiation media for the entire differentiation period. To block/neutralise IGF-II receptor signalling, media was supplemented with goat IgG anti-human IGF-IIR antibody ([0.25 μg/ml], AF2447, R&D) throughout differentiation.

[1] = system: hESC and hiPSC derived photoreceptors; test: Calcium imaging (Fura-2) of cGMP response; format: cell-based, human; settings: for effect on cGMP-mediated increase in Ca2+ influx: cobalt chloride and magnesium chloride together in the perfusate with cGMP
Source text: In order to determine whether developing photoreceptors contained the machinery necessary for transduction, the inventors plated differentiating EBs onto poly-L-ornithine and laminin-coated 6 well plates for 15 days prior to optical recording using calcium imaging. Membrane disks in the outer segment of native photoreceptors contain a photopigment (for example the rod-specific pigment rhodopsin consists of opsin+retinal), and the cell membrane in outer segments contains cyclic guanosine monophosphate (cGMP)-gated cationic (sodium and calcium) channels. In the dark, cGMP levels are high and the photoreceptors are maintained in a depolarised state via influx of Na^+ and Ca^2+ through these cGMP-gated channels which are in an open state. Exposure to light causes the retinal part of the photopigment to isomerise to trans-retinal, leading to activation of multiple G-proteins and phosphodiesterase 6 which in turns degrades cGMP, resulting in closure of the channels and membrane hyperpolarisation. To test if the hESC and hiPSC derived photoreceptors respond in a similar manner, on day 30, 45 and 60 of differentiation, cells were exposed to flashes of red, green, blue or white light, or to membrane-permeable 8-br-cGMP. As 8-br-cGMP opens the cationic (Na^+ and Ca^2+) channel associated with phototransduction, it triggers a Ca^2+ influx in photoreceptors known as the inward dark current. Loading cells with the fluorescent Ca^2+ indicator Fura-2 therefore enables the visualisation of changes in intracellular calcium associated with opening or closing of the cGMP-gated channel, with a decrease in fluorescence representing an increase in calcium influx.
EBs were dark adapted for 24 hours prior to recording then loaded with Fura-2 AM (10 μM, Molecular probes/Invitrogen) for 45 min at 37° C. (95% O2/5% CO2) followed by perfusion (1 ml/minute) with oxygenated artificial Cerebrospinal Fluid (aCSF; 118 mM NaCl, 25 mM NaHCO3, 1 mM NaH2PO4, 3 mM KCl, 1 mM MgCl2, 2 mM CaCl2, 10 mM glucose) for one hour. Cells were exposed to 8-br-cGMP (cGMP, 1 mM, Sigma) in aCSF. Control recordings were performed with aCSF alone or with 8-br-cGMP in CaCl2-free aCSF supplemented with calcium channel blocker Cobalt (II) chloride (CoCl2, 4 mM, AnalaR) and 10 mM HEPES. Fluorescence was monitored using an inverted Olympus IX71 microscope and images (excitation 380 nm, 800 ms exposure) acquired using a Quantem 512SC camera (Photometrics) and MetaMorph Software (Molecular Devices). For each stimulation 20 seconds baseline activity was recorded. Fluorescence change was analysed using the formula % Δl/lo=(l1−lo)×100/lo, where lo was the average cellular fluorescence during baseline activity and l1 following stimulation. Significance was determined using a student's t-test (P<0.01).

differentiating hESCs = test: Optic vesicle and optic cup formation from EBs differentiated in 3D with IGF-1; format: cell-based, human
Description: hESC (line H9, WiCell) and hiPSC lines Clone 4^25 and NHDF^26 were expanded and differentiated as previously described.^14 For IGF-1 treatment, cultures were differentiated in VNIM media^14 supplemented with recombinant human IGF-1 (5 ng/ml, Sigma) until day 37, then in basal Knockout serum-free media^14 with 10 ng/ml IGF-1 until day 90 (FIG. 1A). Control cultures were differentiated in parallel in the absence of IGF-1. Time-lapse capture of culture morphology was achieved using a BioStation CT (Nikon).

[2] = system: human pluripotent stem cells; test: Modified differentiation media, mTeSR1 feeder-free adapted cells: optic cup formation; format: cell-based; settings: 2 and 3 fold increase in IGF-1 concentration, FIG. 15
Description: Human pluripotent stem cells were grown under feeder free conditions the effect of freeder free conditions on their differentiation potential to synthetic retina investigated.
mTeSR1 media (Stem Cell Technologies) is a highly specialised serum-free and complete media designed for feeder-free culture. Cells to this feeder-free technique and subjected to differentiation studies using the IGF-1 factor as discussed above.

T1 sequence (P08069 31-1367): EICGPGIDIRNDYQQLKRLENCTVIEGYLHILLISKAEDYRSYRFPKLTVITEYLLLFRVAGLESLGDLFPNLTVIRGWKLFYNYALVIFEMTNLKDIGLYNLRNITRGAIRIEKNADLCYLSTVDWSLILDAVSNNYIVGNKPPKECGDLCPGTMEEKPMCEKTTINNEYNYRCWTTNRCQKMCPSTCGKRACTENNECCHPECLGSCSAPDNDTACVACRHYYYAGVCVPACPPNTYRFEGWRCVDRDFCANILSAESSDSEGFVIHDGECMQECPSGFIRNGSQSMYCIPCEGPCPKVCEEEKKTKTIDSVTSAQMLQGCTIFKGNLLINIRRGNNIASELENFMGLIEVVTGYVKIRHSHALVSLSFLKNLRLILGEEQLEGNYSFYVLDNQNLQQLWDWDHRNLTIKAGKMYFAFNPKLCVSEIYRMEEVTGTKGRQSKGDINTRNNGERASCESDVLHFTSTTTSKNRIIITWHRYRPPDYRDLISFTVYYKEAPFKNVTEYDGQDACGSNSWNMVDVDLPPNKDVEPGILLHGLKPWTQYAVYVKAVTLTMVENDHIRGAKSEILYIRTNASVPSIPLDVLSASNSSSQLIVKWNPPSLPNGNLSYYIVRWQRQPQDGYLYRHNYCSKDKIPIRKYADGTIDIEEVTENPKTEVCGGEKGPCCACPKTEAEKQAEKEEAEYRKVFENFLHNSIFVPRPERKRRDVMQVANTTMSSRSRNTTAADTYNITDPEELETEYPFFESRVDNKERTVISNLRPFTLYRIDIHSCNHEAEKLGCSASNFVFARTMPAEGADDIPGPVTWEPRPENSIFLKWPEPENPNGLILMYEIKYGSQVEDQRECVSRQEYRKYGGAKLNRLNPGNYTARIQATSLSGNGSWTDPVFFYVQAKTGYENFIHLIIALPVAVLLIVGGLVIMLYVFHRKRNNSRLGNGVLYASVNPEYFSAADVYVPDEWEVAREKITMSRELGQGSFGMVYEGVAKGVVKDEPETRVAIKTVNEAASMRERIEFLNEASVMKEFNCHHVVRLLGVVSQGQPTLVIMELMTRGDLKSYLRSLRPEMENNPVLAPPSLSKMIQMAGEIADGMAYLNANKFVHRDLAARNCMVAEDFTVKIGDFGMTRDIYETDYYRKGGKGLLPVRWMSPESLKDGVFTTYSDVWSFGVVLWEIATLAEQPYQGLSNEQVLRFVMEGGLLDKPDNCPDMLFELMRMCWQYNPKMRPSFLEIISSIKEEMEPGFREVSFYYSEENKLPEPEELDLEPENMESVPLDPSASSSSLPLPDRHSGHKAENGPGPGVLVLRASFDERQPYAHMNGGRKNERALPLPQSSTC

Compound: CC(C)(C)c1cc(C=C(C#N)C#N)cc(Br)c1O [(pi)IR]
viability of cultures (IGF-IR; after day 45, with and without exogenous IGF-1): did not remain viable
optic cups (IGF-IR; day 45): undetectable
optic vesicle production from differentiating EBs (IGF-IR; day 45, absence of IGF-1 ((pi)IR-), p=0.021): significantly reduced
optic vesicle production from differentiating EBs (IGF-IR; day 45, presence of IGF-1 ((pi)IR+), p=0.023): significantly reduced
survival of EBs (IGF-IR; days of differentiation, with and without IGF-1): ≤ 50 days

Compound: [Cl-].[Cl-].[Mg+2] [magnesium chloride]
effect on cGMP-mediated increase in Ca2+ influx [1]: abolished

cGMP respondent cultures ([1]; by day 90, 8-br-cGMP stimulation): 45.3%
cGMP respondent cultures ([1]; day 45 of differentiation, 8-br-cGMP stimulation): 24.1%
Compound: IGF-1: recombinant human IGF-1 (Sigma), single-chain 70-amino-acid protein, SEQ ID NO:1
frequency of optic vesicle formation (differentiating hESCs; IGF-1 in differentiation media vs control, FIG. 5I): significantly increased
optic vesicle formation relative to control levels (differentiating hESCs; by day 15): double
increase in optic vesicle and optic cup formation vs control (differentiating hESCs; by day 60): 4 fold
EBs with optic cup formation (differentiating hESCs; day 60, FIG. 5J, control 3.9%): 17.4%
formation of optic cups on increasing concentration [2]: did not cause any significant changes

Fura-2 fluorescence change (Ca2+ influx) ([1]; IGF-1 treated cultures, 1 mM in aCSF): decreased fluorescence
Compound: Nc1nc2c(nc(Br)n2[C@@H]2O[C@@H]3COP(=O)(O)O[C@H]3[C@H]2O)c(=O)[nH]1 [8-br-cGMP]

Compound: [Cl-].[Cl-].[Co+2] [cobalt chloride, Cobalt (II) chloride]
effect on cGMP-mediated increase in Ca2+ influx [1]: abolished
